Measured values: patent US20180007910A1, “FUNGICIDAL COMPOSITION EFFECTIVE AGAINST ALTERNARIA ON CITRUS” (ARYSTA LIFESCIENCE BENELUX SPRL, priority 2015, published 2018)

Key:
Alternaria alternata = assay: Field trial 2014, control of Alternaria alternata on mandarins (Alzira, Valencia, Spain); type: in vivo; details: Syllit 544 g/l suspension concentrate; spring, autumn and combined treatments; OECD criteria; FIG. 9
Protocol: (§1) A field trial was conducted for the control of Alternaria alternata on mandarins in Alzira, Valencia, Spain. The product used was Syllit 544 g/l suspension concentrate. Mandarins were harvested and classified using the OECD criteria (international quality standard for citrus established by the Organisation for Economic Co-operation and Development in 2010).

mandarins = assay: Phytotoxicity observation in field trial 2014; type: in vivo; details: field trial 2014 on mandarins, Syllit 544 g/l suspension concentrate
Protocol: as §1

For `CC(=O)O.CCCCCCCCCCCCNC(=N)N` [Dodine, 1-dodecylguanidiniumethanoate], the “percentage of fruits in the category Extra compared to control group” value (Alternaria alternata) was “significantly higher percentage of fruit” and the symptoms of phytotoxicity (mandarins) was “No symptoms of phytotoxicity were observed”.
